In US8338337B2, “Substituted pyridines having a herbicidal effect” (BASF SE, priority 2008, dated 2012):

Experiments:
[1] = test system: ABUTH; experiment: greenhouse post-emergence herbicidal test; assay type: in vivo, Abutilon theophrasti; settings: 3.0 kg/ha, scale 0 to 100
Description: The seeds of the test plants were sown separately for each species. For the post-emergence treatment, the test plants were first grown to a height of 3 to 15 cm, depending on the plant habit, and then treated with the active compounds which had been suspended or emulsified in water. For this purpose, the test plants were either sown directly and grown in the same containers, or they were first grown separately as seedlings and transplanted into the test containers a few days prior to treatment. Depending on the species, the plants were kept at 10-25° C. or 20-35° C. The test period extended over 2 to 4 weeks. During this time, the plants were tended, and their response to the individual treatments was evaluated. Evaluation was carried out using a scale from 0 to 100. 100 means no emergence of the plants, or complete destruction of at least the aerial moieties, and 0 means no damage, or normal course of growth. A good herbicidal activity is given at values of at least 70 and a very good herbicidal activity is given at values of at least 85. [table]

[2] = test system: AMARE; experiment: greenhouse pre-emergence herbicidal test; assay type: in vivo, Amaranthus retroflexus; settings: 0.5 kg/ha, scale 0 to 100
Description: The seeds of the test plants were sown separately for each species. For the pre-emergence treatment, the active compounds, which had been suspended or emulsified in water, were applied directly after sowing by means of finely distributing nozzles. The containers were irrigated gently to promote germination and growth and subsequently covered with transparent plastic hoods until the plants had rooted. This cover caused uniform germination of the test plants, unless this has been impaired by the active compounds. Depending on the species, the plants were kept at 10-25° C. or 20-35° C. The test period extended over 2 to 4 weeks. During this time, the plants were tended, and their response to the individual treatments was evaluated. Evaluation was carried out using a scale from 0 to 100. 100 means no emergence of the plants, or complete destruction of at least the aerial moieties, and 0 means no damage, or normal course of growth. A good herbicidal activity is given at values of at least 70 and a very good herbicidal activity is given at values of at least 85. [table]

Compound	herbicidal activity against ABUTH [1]	herbicidal activity against AMARE [2]
O=c1oc2ccc(O)nc2c(O)c1-c1ccccc1C(F)(F)F [I-23]	good (A good herbicidal activity is given at values of at least 70)	
O=c1oc2cccnc2c(O)c1-c1cc(C(F)(F)F)ccc1C(F)(F)F [I-35]		very good (a very good herbicidal activity is given at values of at least 85)
